Data set [1] concerns C2C12 myotubes. The experiment in a line: Glucose in C2C12 myotubes cultured with M1 macrophage conditioned medium. The note with it: macrophages treated with 10 mM, glucose adjusted to 100 mg/100 mL (FIG. 95). The format is cell-based, Mice. On the procedure:
FIG. 95. C2C12 myotubes, treated with a conditioned RAW264.7 M1 macrophages medium (stimulated with LPS and IFN-γ [M1]), accumulate glucose in the culture medium: SLN compounds reduce the “hyperglycemic” effect of the M1 medium. […]; then, the culture media were collected, and their glucose concentration adjusted to 100 mg/100 mL and used to culture C2C12 myoblasts that had been previously differentiated to myotubes in DMEM supplemented with 2% horse serum for 5 days. The glucose concentration in myotubes was determined at several times with a Glucocard (Arkray). C2C12 myotubes, cultured with conditioned media of non-stimulated (cells) macrophages, or similarly stimulated but not treated with a SLN (M1), were used as controls. The initial glucose levels (time 0) are used as a reference (100%) in each of the series.
[…]. Then the culture media were collected, their glucose concentration adjusted to 100 mg/100 mL and used to culture C2C12 myoblasts that had been previously differentiated to myotubes in DMEM supplemented with 2% horse serum for 5 days. The glucose concentration of the myotube cultures was determined at different times with Glucocard (Arkray). The controls used were the C2C12 cultured with media conditioned with no stimulated macrophages (cells) or with M1 conditioned media. The initial glucose levels (time 0) were used as a reference (100%) in each series.

Another data set concerns the target T1, GPBP (Homo sapiens, UniProt Q9Y5P4).
T1 sequence (Q9Y5P4 1-624): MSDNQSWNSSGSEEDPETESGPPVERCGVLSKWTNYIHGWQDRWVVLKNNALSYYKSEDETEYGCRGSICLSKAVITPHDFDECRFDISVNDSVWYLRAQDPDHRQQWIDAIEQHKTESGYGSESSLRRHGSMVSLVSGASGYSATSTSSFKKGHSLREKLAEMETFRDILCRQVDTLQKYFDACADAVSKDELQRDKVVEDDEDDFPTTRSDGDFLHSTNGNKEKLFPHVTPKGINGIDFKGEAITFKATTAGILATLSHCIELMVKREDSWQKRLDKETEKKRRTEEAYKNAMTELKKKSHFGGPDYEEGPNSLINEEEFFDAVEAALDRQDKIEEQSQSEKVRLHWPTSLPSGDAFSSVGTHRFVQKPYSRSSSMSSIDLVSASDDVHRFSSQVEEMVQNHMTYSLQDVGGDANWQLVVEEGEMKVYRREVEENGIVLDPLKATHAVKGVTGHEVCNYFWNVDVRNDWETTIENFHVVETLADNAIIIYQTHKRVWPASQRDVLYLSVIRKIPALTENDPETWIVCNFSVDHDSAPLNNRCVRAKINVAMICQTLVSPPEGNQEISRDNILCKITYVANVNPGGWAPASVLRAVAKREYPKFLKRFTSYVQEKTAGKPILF
The experiment in a line: In vitro (auto)phosphorylation of recombinant FLAG-GPBP. The class given is biochemical. The conditions noted are these: for GPBP in vitro kinase activity (autophosphorylation): β-glycerophosphate phosphorylation solution pH 7.0, [γ-32P]ATP, autoradiography (FIG. 64). Further details: made in house; host or cells: Pichia pastoris. As for the experimental part:
FIG. 64. […]. Recombinant FLAG-GPBP, in similar quantities, expressed in yeast Pichia pastoris (Invitrogen) and purified with anti-FLAG resin (Sigma), as described above (Raya et al. J Biol Chem. 1999; […]. The reaction cocktails (25 μl) were incubated at 30° C. and stirred (350 rpm) for 15 minutes, then analyzed using PAGE standard procedures in the presence of SDS and β-mercaptoethanol, and electrotransferred to PVDF membrane (Immobilon P, Millipore). Membranes were then exposed to autoradiography (32P) and subsequently sent for incubation with anti-FLAG antibodies, peroxidase-labelled; ECL Prime (GE Healthcare) (WB anti-FLAG) was used for developing.
[…]. Then, electrophoresis in 10% polyacrylamide gel and electroblotting to PVDF membrane were applied. Autoradiography was applied to membranes by exposure to photographic films (Amersham Hyperfilm MP, GE Healthcare Lifesciences). After autoradiography, the membranes were blocked with 5% skimmed milk in TBST and incubated with anti-FLAG (Sigma) monoclonal antibodies and secondary antibodies against mouse IgG conjugated to peroxidase (Promega).

In data set [2] the test system is C2C12 myotubes. The experiment in a line: Glucose concentration in C2C12 myotube culture medium. The class given is cell-based, Mice. The conditions noted are these: for glucose consumption in normoglycemia: glucose adjusted to 100 mg/100 mL, 10 mM (FIGS. 68A-B). As for the experimental part:
FIG. 67. Hypoglycemic activity ex vivo. Glucose concentration in myocyte culture medium, treated with the control, SLN1, or SLN10. […]. The final glucose concentration in the culture medium was determined with a Glucocard (Arkray). […].
Glucose concentration in culture media was determined with a Glucocard (Arkray). […].
For this purpose, the evolution of glucose uptake was studied in the culture medium of myotubes in response to different molecules studied (FIG. 67).

In another data set the test system is RAW264.7 macrophages. Description: GPBP secretion by RAW264.7 macrophages stimulated with LPS and IFN-γ (ELISA). The class given is cell-based. On the procedure: FIG. 91. […]. FIG. 94. […]. In A, an assay scheme is shown; […]. […] In B, the relative expression of IL-10 in RAW264.7 macrophages cultured with conditioned media, obtained as specified in A, is shown. The analysis was carried out by quantitative RT and PCR, using HPRT-1 as a normalizer. In this case, the reference point were cells treated with a conditioned medium in absence of N26 (RQ=1 value), and the increased IL-10 expression was verified; the analysis included non-stimulated cells cultured in a fresh, non-conditioned medium (cells).
[…]; then, they were stimulated with LPS (0.5 μg/mL) and IFN-γ (20 ng/mL) for 16 hours, after which the GPBP concentration in culture media was determined by ELISA.
FIG. 104. […]. RAW264.7 cells (control cells) were treated as indicated (10 mM) for 2 hours and subsequently stimulated with LPS (0.5 μg/mL) and IFN-γ (20 ng/mL) for 16 hours; […].
FIG. 105. […]. then, the GPBP concentration in culture media was determined by ELISA.

Another data set has as its system (NZB×NZW) F1 mice. The experiment in a line: Proteinuria and renal lupus in (NZB×NZW) F1 mice. The class given is in vivo. The conditions noted are these: for number of mice with a pathological grade above 3: kidneys at week 35 (FIG. 84).
The conditions of data set [3]: STZ-diabetic male rats, mean ± SD; for Absolute body weight, Day −1 / Absolute body weight, Day −2 (distribution of groups): before first TI/RI administration.

“Also recorded” adds a separate entry of the source. Structures can show the parent of a compound that is named as a salt. Where two headings read alike, the source gives them in different places.

This is an account of results in US11510886B2, “Metformin amino acid compounds and methods of using the same” (Laboratorios Silancs S.A. DE C.V., priority 2016, dated 2022).

As for metformin lysinate, in the data set with C2C12 myotubes [1], the “glucose concentration in myotubes kept in M1 macrophage-conditioned medium” value (shortened to “glucose concentration in myotubes kept”) was “reduced the glucose concentration to hypoglycemic levels”. In the data set with C2C12 myotubes [1] (listed as SLN10), the “glucose concentration in myotubes kept” value was “took them to “hypoglycemic” levels”. The “GPBP inhibition depending on reaction medium” value at GPBP (Na buffer: 25 mM Tris-HCl pH 7.4, 150 mM NaCl (FIG. 66)) is “inhibits GPBP in Na buffer”. In addition, the “active ingredient concentration corresponding to 1 mM” value on GPBP (in vitro assays, pH 7.0, applicant's estimate) is 8.6 µM. In addition, at GPBP (listed as SLN10), the “GPBP in vitro kinase activity (autophosphorylation)” value was “inhibits GPBP in vitro kinase activity; also recorded: kinase activity inhibitors”. Further, the “glucose consumption in normoglycemia” value in the data set on C2C12 myotubes [2] was “equally induce glucose consumption”. Further, the “anti-hyperglycaemic activity (glucose in myotube medium)” value in the data set with C2C12 myotubes [2] (initial glucose 450 mg/100 mL, 10 mM, last 18 hours (FIG. 67), listed as SLN10) is “greater effect than SLN1; also recorded: higher than that of compound SLN1”. Also, in the data set with RAW264.7 macrophages, the GPBP secretion entry is on record as “induces cGPBP secretion; also recorded: induced GPBP secretion strongly”, the “biological activity (GPBP secretion) with equimolar MgCl2 or CaCl2” value was “reduce the biological activity” and the “cGPBP levels in conditioned medium” value is “approximately 200 ng/mL”. Also, the proteinuria entry in the data set with (NZB×NZW) F1 mice (100 mg/kg/day, IP 5 days from week 16, then oral in drinking water, vs control, listed as SLN10) is given as “most effective; also recorded: significantly less proteinuria; also recorded: reduced proteinuria”. Further, the “autoantibody (anti-ssDNA IgG) titers” value in the data set on (NZB×NZW) F1 mice (FIG. 85, Control vs. SLN10 p=0.0238) was “reduces antibodies titers; also recorded: reduced titers by half”. The “number of mice with a pathological grade above 3” value in the data set on (NZB×NZW) F1 mice is on record as 3. Moreover, in the data set on (NZB×NZW) F1 mice (plasma, before steady increase of proteinuria (FIG. 86)), the “circulating GPBP levels (cGPBP)” value is “showed no increase”. In addition, in data set [3], the “Absolute body weight, Day −1” value came out at 212.73 ± 0.23 g and the “Absolute body weight, Day −2 (distribution of groups)” value was 217.67 ± 9.71 g.

Take `CN(C)C(=N)N=C(N)N` [Metformin hydrochloride, metformin hydrochloride, reference compound]: the “glucose concentration in myotubes kept” value in the data set with C2C12 myotubes [1] (listed as SLN1, hydrochloride) was “slowed progression towards “hyperglycemia””; in the data set on C2C12 myotubes [1] (listed as metformin HCl, hydrochloride) it was “slowed down the progression towards hyperglycemia”. The “GPBP in vitro kinase activity (autophosphorylation)” value at GPBP is on record as “moderate activator”. Further, the “glucose consumption in normoglycemia” value with C2C12 myotubes [2] was “equally induce glucose consumption”. The GPBP secretion result in the data set on RAW264.7 macrophages (10 mM, LPS 0.5 μg/mL and IFN-γ 20 ng/mL (FIG. 91)) is “did not induce significantly the secretion of GPBP”. Also, the deaths entry in the data set on (NZB×NZW) F1 mice (from week 33 onwards) is given as “began to die”. In addition, the “number of mice with a pathological grade above 3” value in the data set on (NZB×NZW) F1 mice is 7. The “Absolute body weight, Day −3 (before STZ administration)” value in data set [3] (baseline before STZ and before first TI/RI administration) worked out at 231.30 ± 11.83 g. Moreover, the “Absolute body weight, Day −1” value in data set [3] was 210.43 ± 11.90 g. Besides, in data set [3], the “Absolute body weight, Day −2 (distribution of groups)” value is listed as 223.73 ± 10.88 g.
